Assay results as given in PMC12020424, “Identification and Validation of Cyclic Peptides with Mucin-Selective, Location-Specific Binding in the Gastrointestinal Tract” (ACS Nano, 2025).
Bridge positions count the residues as written; N and C are the ends. Ends that are not written are not given here.

Legend:
[1] = tested on: MUC2-containing intestinal tissue (jejunal); assay: Ex vivo fluorescent binding to small intestine tissue; set-up: species or system porcine; settings: MUC2-selective peptides to small intestine
Excerpt: (§1) After identifying the peptide hits for each mucin, we tested their binding in an ex vivo setting (Figure S1), evaluating their interaction with mucin-containing porcine tissue and semiquantitatively representing it through fluorescent imaging (Figure 3a). The cyclic peptides were synthesized and conjugated to a fluorophore, Alexa Fluor 647 (AF647), at the N-terminus to allow fluorescent imaging to be used to semiquantitatively measure the peptides’ ex vivo tissue binding, compared to free AF647 and AF647 conjugated to wheat germ agglutinin (WGA), a known lectin for glycoproteins.[40] […] Porcine GI tissue was used due to its similarity in mucin expression compared to human GI tissue and its capacity to source large surface areas of tissue for experiments.[41],[42] Representative IVIS images are shown in Figure 3b-e, where the first four columns represent the four identified peptides (M2.1–M2.4 in Figure 3b,c, M5.1–M5.4 in Figure 3d,e), the fifth column represents WGA-AF647, and the sixth column represents AF647. The “score” results for the peptide ligands are presented in Figure 3f,g for the mucins of interest, with Tables S2–S5 and Figure S3 detailing results for the other tissues (the equation for calculating the “score” is found in the Materials and Methodssection). […] We also examined selectivity by incubating peptides on nontarget tissues. Figure 3h,i depicts the “selectivity” results for the MUC2-selective and MUC5AC-selective peptides, respectively. Selectivity was calculated by determining the ratio of the “score” for a particular mucin to the sum of the “scores” for all mucins (see the Materials and Methods section for the equation used).
(§2) The top-performing hits from phage display were tested on ex vivo segments of porcine mucin-containing tissues (jejunal, stomach, and esophageal tissues) obtained from local abattoirs or laboratory-maintained pigs. Tissue was used either immediately after acquisition or after storage at −80 °C; tissue was used at most 1 week after acquisition and storage at −80 °C. After acquisition and equilibration to room temperature, the tissue was washed twice with 25 mL (each) of cold 1× PBS to remove undigested food and other debris. After washing and cleaning, the tissue was mounted between two magnetic plates with holes corresponding to a 48-well plate, as previously described,[72] such that the luminal side of the tissue was facing up (Figure S1). After the tissue was mounted, the amount of peptide/protein corresponding to 40 μg of AF647 was suspended in 200 μL of 1× PBS and added to the wells created by the magnetic plates. This was done 3× for each formulation to perform the experiment in triplicate. In addition, plain 1× PBS was added to one well to serve as the background measurement. After the peptides were added, the plate setup was covered with aluminum foil and allowed to incubate for 1 h at room temperature with gentle agitation (50 rpm). After incubation, the nonbinding peptides were removed by pouring out the solutions onto a clean paper towel, and the setup was washed three times by adding 200 μL of 1× PBS to each well and gently agitating the setup for 30 s before removing the washing solution. After washing was complete, fluorescence imaging was performed using an IVIS Spectrum fluorescent imaging system (PerkinElmer), with an automatically calculated exposure time (usually ∼1 s), a 20 cm × 20 cm field of view, and an excitation/emission of 640/680 nm, respectively. The imaging results were analyzed using Living Image software to calculate the total fluorescence intensity for each well, and the results for each hit or control were averaged across different wells. The negative control used was unconjugated AF647, while the positive control was WGA-AF647, since WGA is a known lectin that binds glycoproteins.
(§3) To better account for tissue-to-tissue variability, the results for each trial were reported as scores rather than using the raw fluorescence intensity. […]

[2] = tested on: MUC5AC-containing stomach tissue; assay: Ex vivo fluorescent binding to stomach tissue; set-up: species or system porcine; settings: MUC5AC-selective peptides to stomach
Excerpt: as §1
as §2, with “After the peptides were added, the plate setup was covered with aluminum foil and allowed to incubate for 1 h at room temperature with gentle agitation (50 rpm). After incubation, the nonbinding peptides were removed by pouring out the solutions onto a clean paper towel, and the setup was washed three times by adding 200 μL of 1× PBS to each well and gently agitating the setup for 30 s before removing the washing solution.” left out, “The negative control used was unconjugated AF647, while the positive control was WGA-AF647, since WGA is a known lectin that binds glycoproteins.” left out
as §3

small intestine = assay: In vivo gastrointestinal localization, small intestine; set-up: species or system Sprague–Dawley rats; settings: AF647 conjugate, oral gavage, 1 mg/kg, fasted rats, n = 6, 6 h, segment fluorescence / sum of esophagus, stomach
Protocol: To measure the gastrointestinal localization of these peptides in vivo, peptides M2.3 and M5.2 with conjugated AF647 dye (as a model drug) were administered via oral gavage to fasted Sprague–Dawley rats, along with unconjugated AF647 dye and WGA-AF647. After 6 h, localization was measured by using fluorescent imaging on the rats’ GI tracts. The major results of the total binding fluorescence and organ-specific binding fluorescence for M2.3, as well as the total binding fluorescence and organ-specific binding fluorescence for M5.2, along with results for the AF647 and WGA-AF647 in each case, are shown in Figure 4, with more detailed results found in Figure S9. All results have been adjusted by subtracting the fluorescence from tissue from untreated rats. […]
All animal studies were carried out under the supervision of MIT’s Division of Comparative Medicine and in compliance with NIH’s Principles of Laboratory Animal Care, following the guidelines set forth by MIT’s Committee on Animal Care. Sprague–Dawley rats (200–300 g, a mix of male and female) were obtained from Charles River Laboratories and allowed to acclimate to their new conditions for 1 week, following which their diet was adjusted to an alfalfa-free diet (AIN-93M, TestDiet) for at least 7 days prior to the study in order to reduce background fluorescence. […]

MUC5AC [3] = biological target: T1, MUC5AC (Homo sapiens, UniProt P98088); assay: Phage display (CX7C library) against MUC5AC, Sanger sequencing; type: binding; settings: MUC5AC phage screening, third round of panning, 16 sequenced candidates
Protocol: For each mucin of interest, 5 μg of mucin protein was diluted in 150 μL of Tris-buffered saline (TBS) and added to 2 wells of a microtiter plate. The plate was left overnight in a humidified, sealed container with agitation at 50 rpm. After the overnight mucin coating, the solution was poured out, and 300 μL of blocking buffer was added to the wells for 1 h. After the 1 h waiting period, the blocking buffer was poured out, and the wells were washed three times with 300 μL of Tris-buffered saline with TBST (TBS + 0.1% (v/v) Tween-20) to remove nonspecific binding on the mucin layer coating. Next, 5 μL of the C7C library diluted with 95 μL of TBST was added to each blocked well and placed on shaker for 45 min, before pouring out the nonbinding phage and washing the plate ten times with TBST. A 0.2 M glycine-HCl elution buffer (pH 2.2, 100 μL) was added to each well and placed on a shaker for 20 min to release the mucin-layer binding peptides on the plate as unamplified eluate, with the pH neutralized by 30 μL of neutralization buffer (1 M Tris-HCl, pH 9).
E. coli liquid cultures were prepared by adding E. coli cells to 20 mL of LB media and placing them in shaking conditions at 37 °C and 250 rpm for 2 h and 45 min. The unamplified eluate (1 μL of which was saved for titering) was added to the E. coli cultures under the same conditions for 4 h and 45 min for amplification. […]

MUC5AC [4] = biological target: T1, MUC5AC; assay: Phage ELISA on MUC5AC; type: binding; settings: phage clones displaying the peptide, 10^7 PFU/μL, MUC5AC-coated plate, anti-M13/HRP, TMB, 450 nm, blank subtracted, three wells; vs random library and insertless phage
Excerpt: We next sought to validate the binding efficiency of these identified phage clones. We tested phage clones displaying peptides M2.1, M2.2, M2.3, and M2.4 for binding to MUC2, and phage clones displaying peptides M5.1, M5.2, M5.3, and M5.4 for binding to MUC5AC. We utilized a bacteriophage enzyme-linked immunosorbent assay to test the binding of the peptide hits to the specific target mucins, MUC2 and MUC5AC (Figure 2d). The spectrophotometer reported absorbance values at 450 nm. The intensity of the absorbance signal is proportional to the amount of peptide-mucin binding present in each sample. The negative controls (library samples and insertless samples) served as references for nonspecific binding.
First, mucin was coated onto the surface of a plastic plate overnight using the same process as that performed for the original phage display. The next morning, three wells of each phage clone were prepared, with each phage solution having a titer of 10^7 PFU/μL to ensure a fair comparison between the clones. […]
However, instead of eluting the bound phage, 100 μL of 1:2000 anti-M13/HRP mouse monoclonal antibody was added to each well, and the antibody was allowed to incubate with the wells for 30 min. […] The resulting solutions were analyzed by absorbance spectroscopy at a wavelength of 450 nm to determine the relative amount of phage present in each well.

[5] = scaled between free AF647 (0) and WGA-AF647 (1), mean across trials n = 3

| Overall nanoparticle “score” [1, 5] | Selectivity ([1]; score for MUC2 tissue / sum of scores for all mucins, n = 3) | Overall nanoparticle “score” [2, 5] | Selectivity ([2]; score for MUC5AC tissue / sum of scores for all mucins, n = 3) | % Prevalence (MUC5AC [3]) [%] | Substance | selectivity for the small intestine vs controls (small intestine) | phage ELISA binding vs negative controls (MUC5AC [4]) |
| --- | --- | --- | --- | --- | --- | --- | --- |
| 1 | 0.333 | 1 | 0.333 |  | Alexa Fluor 647-conjugated wheat germ agglutinin [WGA] | did not demonstrate a significant improvement over the free dye |  |
|  |  |  |  | 6.25 | CSSASVEWC (disulfide 1-9 (inferred)) [Peptide M5.4, CX7C cyclic peptide hit for MUC5AC; AF647 conjugated at N-terminus in ex vivo tests] |  | significantly greater binding to MUC5AC than the random library and insertless phage |
